Measurements published in US20260200897A1, “4-((5-(3-(4-(PYRIDIN-2-YL)CYCLOPENTYL)-1H-PYRAZOL-3-YL)AMINO)-BENZENESULFONAMIDE DERIVATIVES AND SIMILAR COMPOUNDS AS CDK INHIBITORS FOR THE TREATMENT OF CANCER” (BeOne Medicines I GmbH, priority 2023, published 2026).

Columns and labels:
CDK2/Cyclin E1 = CDK2/Cyclin E1 (Homo sapiens, UniProt P24941); experiment: CDK2/Cyclin E1 TR-FRET biochemical assay, 0.060 mM ATP; conditions: 0.15 μM Rb (Ser780)-biotin substrate, 120 min reaction, Table 1
Protocol: (§1) Compounds disclosed herein were tested for inhibition of CDK2/Cyclin E1 or CDK1/Cyclin B1 kinase in an assay based on the time-resolved fluorescence-resonance energy transfer (TR-FRET) methodology. The assay was carried out in 384-well low volume black plates in a reaction mixture containing CDK2/Cyclin E1 or CDK1/Cyclin B1, 0.060 mM ATP for CDK2/Cyclin E1 or 0.015 mM ATP for CDK1/Cyclin B1, 0.15 μM Rb (Ser780)-biotin substrate and 0-10 μM compound in buffer containing 50 mM HEPES pH7.0, 0.02% NaN3, 0.01% BSA, 0.1 mM Orthovanadate, 50 mM MgCl2, 1 mM DTT and 0.005% Tween-20. The kinase was incubated with compound for 60 minutes at room temperature and the reaction was initiated by the addition of ATP and Rb (Ser780)-biotin substrate. After reaction at room temperature for 120 minutes, an equal volume of stop/detection solution was added according to the manufacture's instruction (Cisbio Bioassays). The stop/detection solution contained Streptavidin-XL665 and Anti-pRb (Ser780) mAb-Eu Cryptate in Detection buffer (Cisbio Bioassays). Plates were incubated at room temperature for 60 minutes, and the TR-FRET signals (ex337 nm, em665 nm/620 nm) were recorded on a PHERAstar FSX plate reader (BMG Labtech). The inhibition percentage of CDK2/Cyclin E1 or CDK1/Cyclin B1 kinase activity in presence of increasing concentrations of compounds was calculated based on the ratio of fluorescence at 665 nm to that at 620 nm. The IC50 for each compound was derived from fitting the data to the four-parameter logistic equation by Dotmatics.

CDK1/Cyclin B1 = CDK1/Cyclin B1 (Homo sapiens, UniProt P06493); experiment: CDK1/Cyclin B1 TR-FRET biochemical assay, 0.015 mM ATP; conditions: 0.15 μM Rb (Ser780)-biotin substrate, 120 min reaction, Table 1
Protocol: as §1

CDK1/Cyclin B1, sequence (P06493 whole entry): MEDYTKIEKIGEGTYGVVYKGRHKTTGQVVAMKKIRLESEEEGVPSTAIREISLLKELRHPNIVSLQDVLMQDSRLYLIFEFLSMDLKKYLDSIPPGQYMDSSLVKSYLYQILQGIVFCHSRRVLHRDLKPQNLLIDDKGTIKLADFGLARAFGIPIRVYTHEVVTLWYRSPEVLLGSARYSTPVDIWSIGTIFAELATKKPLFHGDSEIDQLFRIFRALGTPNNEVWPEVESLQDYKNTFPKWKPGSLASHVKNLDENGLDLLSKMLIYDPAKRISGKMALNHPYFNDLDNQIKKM
CDK1/Cyclin B1, sequence (P14635 whole entry partner): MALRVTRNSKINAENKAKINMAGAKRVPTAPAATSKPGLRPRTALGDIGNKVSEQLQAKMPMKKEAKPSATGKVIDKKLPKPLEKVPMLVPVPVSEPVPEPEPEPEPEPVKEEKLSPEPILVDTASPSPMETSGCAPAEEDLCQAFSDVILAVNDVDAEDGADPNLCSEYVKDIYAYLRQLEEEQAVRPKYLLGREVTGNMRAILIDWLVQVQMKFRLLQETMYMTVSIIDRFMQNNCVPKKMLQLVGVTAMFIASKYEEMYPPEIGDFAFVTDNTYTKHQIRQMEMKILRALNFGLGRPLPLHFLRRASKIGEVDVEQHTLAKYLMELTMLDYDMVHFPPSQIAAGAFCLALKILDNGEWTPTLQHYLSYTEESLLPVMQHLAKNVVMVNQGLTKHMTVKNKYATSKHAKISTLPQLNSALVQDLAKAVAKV

| Structure (SMILES) | IC50 (CDK2/Cyclin E1) [nM] | IC50 (CDK1/Cyclin B1) [nM] |
| --- | --- | --- |
| O=c1c(C2CC2)ccnn1[C@H]1CC[C@@H](c2cc(Nc3ccc4c(c3F)CNS4(=O)=O)n[nH]2)C1 (relative stereo) [Example 28, cis-4-cyclopropyl-2-(3-(3-((4-fluoro-1,1-dioxido-2,3-dihydrobenzo[d]isothiazol-5-yl)amino)-1H-pyrazol-5-yl)cyclopentyl)pyridazin-3 (2H)-one] | 130 | 1240 |
| CC1(n2cnnc2O[C@@H]2CC[C@H](c3cc(Nc4ccc5c(c4F)CNS5(=O)=O)n[nH]3)C2)CC1 (relative stereo) [Example 58, cis-4-fluoro-5-((5-(3-((4-(1-methylcyclopropyl)-4H-1,2,4-triazol-3-yl)oxy)cyclopentyl)-1H-pyrazol-3-yl)amino)-2,3-dihydrobenzo[d]isothiazole 1,1-dioxide] | 269 | 7200 |
| O=c1cccnn1[C@H]1CC[C@@H](c2cc(Nc3ccc4c(c3F)CNS4(=O)=O)n[nH]2)C1 (relative stereo) [Example 21, cis-2-(3-(3-((4-fluoro-1,1-dioxido-2,3-dihydrobenzo[d]isothiazol-5-yl)amino)-1H-pyrazol-5-yl)cyclopentyl)pyridazin-3 (2H)-one] | 14 | 142 |
| Cc1ccnn([C@H]2CC[C@@H](c3cc(Nc4ccc5c(c4F)CNS5(=O)=O)n[nH]3)C2)c1=O (relative stereo) [Example 23, cis-2-(3-(3-((4-fluoro-1,1-dioxido-2,3-dihydrobenzo[d]isothiazol-5-yl)amino)-1H-pyrazol-5-yl)cyclopentyl)-4-methylpyridazin-3 (2H)-one] | 132 | 526 |
| CC1(C)CC(=O)N([C@H]2CC[C@@H](c3cc(Nc4ccc5c(c4F)CNS5(=O)=O)n[nH]3)C2)C1=O (relative stereo) [Example 87, cis-1-(3-(3-((4-fluoro-1,1-dioxido-2,3-dihydrobenzo[d]isothiazol-5-yl)amino)-1H-pyrazol-5-yl)cyclopentyl)-3,3-dimethylpyrrolidine-2,5-dione] | 229 | 3250 |
| CC(C)(C)c1cnc(C2CCC(c3cc(Nc4ccc5c(c4F)CNS5(=O)=O)n[nH]3)C2)o1 (single isomer, unassigned) [Example 91a, cis-5-((5-(3-(5-(tert-butyl)oxazol-2-yl)cyclopentyl)-1H-pyrazol-3-yl)amino)-4-fluoro-2,3-dihydrobenzo[d]isothiazole 1,1-dioxide] | 1.3 | 53 |
| CC(C)c1ccnn([C@H]2CC[C@@H](c3cc(Nc4ccc5c(c4F)CNS5(=O)=O)n[nH]3)C2)c1=O (relative stereo) [Example 26, cis-2-(3-(3-((4-fluoro-1,1-dioxido-2,3-dihydrobenzo[d]isothiazol-5-yl)amino)-1H-pyrazol-5-yl)cyclopentyl)-4-isopropylpyridazin-3 (2H)-one] | 140 | 1690 |
| O=c1c2ccncc2cnn1[C@H]1CC[C@@H](c2cc(Nc3ccc4c(c3F)CNS4(=O)=O)n[nH]2)C1 (relative stereo) [Example 34, cis-2-(3-(3-((4-fluoro-1,1-dioxido-2,3-dihydrobenzo[d]isothiazol-5-yl)amino)-1H-pyrazol-5-yl)cyclopentyl)pyrido[3,4-d]pyridazin-1 (2H)-one] | 63 | 1550 |
| CCc1cnc(C2CCC(c3cc(Nc4ccc5c(c4)CS(=O)(=O)N5)n[nH]3)C2)o1 (centres unmarked) [Example 133, 5-((5-(3-(5-ethyloxazol-2-yl)cyclopentyl)-1H-pyrazol-3-yl)amino)-1,3-dihydrobenzo[c]isothiazole 2,2-dioxide] | 6.2 | 82 |
| O=S1(=O)NCc2c1ccc(Nc1cc([C@H]3CC[C@@H](Oc4nnccc4C4CCC4)C3)[nH]n1)c2F (relative stereo) [Example 35, cis-5-((5-(3-((4-cyclobutylpyridazin-3-yl)oxy)cyclopentyl)-1H-pyrazol-3-yl)amino)-4-fluoro-2,3-dihydrobenzo[d]isothiazole 1,1-dioxide] | 2.6 | 35 |

Further lines, results first:

| IC50 (CDK2/Cyclin E1) [nM] | IC50 (CDK1/Cyclin B1) [nM] | Structure (SMILES) |
| --- | --- | --- |
| 1.4 | 11 | CCc1ccnnc1O[C@@H]1CC[C@H](c2cc(Nc3ccc4c(c3F)CNS4(=O)=O)n[nH]2)C1 (relative stereo) [Example 25, cis-5-((5-(3-((4-ethylpyridazin-3-yl)oxy)cyclopentyl)-1H-pyrazol-3-yl)amino)-4-fluoro-2,3-dihydrobenzo[d]isothiazole 1,1-dioxide] |
| 43 | 239 | O=S1(=O)NCc2c1ccc(Nc1cc([C@H]3CC[C@@H](Oc4cccnn4)C3)[nH]n1)c2F (relative stereo) [Example 22, cis-4-fluoro-5-((5-(3-(pyridazin-3-yloxy)cyclopentyl)-1H-pyrazol-3-yl)amino)-2,3-dihydrobenzo[d]isothiazole 1,1-dioxide] |
| 53 | 1070 | Cc1n[nH]c(C)c1O[C@@H]1CC[C@H](c2cc(Nc3ccc4c(c3F)CNS4(=O)=O)n[nH]2)C1 (relative stereo) [Example 75, cis-5-((5-(3-((3,5-dimethyl-1H-pyrazol-4-yl)oxy)cyclopentyl)-1H-pyrazol-3-yl)amino)-4-fluoro-2,3-dihydrobenzo[d]isothiazole 1,1-dioxide] |
| 530 | > 10000 | Cn1cc(O[C@@H]2CC[C@H](c3cc(Nc4ccc5c(c4F)CNS5(=O)=O)n[nH]3)C2)cn1 (relative stereo) [Example 77, cis-4-fluoro-5-((5-(3-((1-methyl-1H-pyrazol-4-yl)oxy)cyclopentyl)-1H-pyrazol-3-yl)amino)-2,3-dihydrobenzo[d]isothiazole 1,1-dioxide] |
| 829 | > 10000 | O=S1(=O)NCc2c1ccc(Nc1cc([C@H]3CC[C@@H](Oc4cc(C(F)(F)F)n[nH]4)C3)[nH]n1)c2F (relative stereo) [Example 69, cis-4-fluoro-5-((5-(3-((3-(trifluoromethyl)-1H-pyrazol-5-yl)oxy)cyclopentyl)-1H-pyrazol-3-yl)amino)-2,3-dihydrobenzo[d]isothiazole 1,1-dioxide] |
| 19 | 552 | Cc1ncccc1O[C@@H]1CC[C@H](c2cc(Nc3ccc4c(c3F)CNS4(=O)=O)n[nH]2)C1 (relative stereo) [Example 40, cis-4-fluoro-5-((5-(3-((2-methylpyridin-3-yl)oxy)cyclopentyl)-1H-pyrazol-3-yl)amino)-2,3-dihydrobenzo[d]isothiazole 1,1-dioxide] |
| 18 | 671 | CC(C)(C)c1n[nH]cc1OC1CCC(c2cc(Nc3ccc4c(c3F)CNS4(=O)=O)n[nH]2)C1 (single isomer, unassigned) [Example 74b, cis-5-((5-(3-((3-(tert-butyl)-1H-pyrazol-4-yl)oxy)cyclopentyl)-1H-pyrazol-3-yl)amino)-4-fluoro-2,3-dihydrobenzo[d]isothiazole 1,1-dioxide] |
| 4.9 | 301 | CC(C)(C)c1n[nH]cc1OC1CCC(c2cc(Nc3ccc4c(c3F)CNS4(=O)=O)n[nH]2)C1 (single isomer, unassigned) [Example 74a, cis-5-((5-(3-((3-(tert-butyl)-1H-pyrazol-4-yl)oxy)cyclopentyl)-1H-pyrazol-3-yl)amino)-4-fluoro-2,3-dihydrobenzo[d]isothiazole 1,1-dioxide] |
| 70 | 1360 | Cc1cc(O[C@@H]2CC[C@H](c3cc(Nc4ccc5c(c4F)CNS5(=O)=O)n[nH]3)C2)[nH]n1 (relative stereo) [Example 65, cis-4-fluoro-5-((5-(3-((3-methyl-1H-pyrazol-5-yl)oxy)cyclopentyl)-1H-pyrazol-3-yl)amino)-2,3-dihydrobenzo[d]isothiazole 1,1-dioxide] |
| 7.1 | 121 | C=C(C)c1csnc1O[C@@H]1CC[C@H](c2cc(Nc3ccc4c(c3F)CNS4(=O)=O)n[nH]2)C1 (relative stereo) [Example 52, cis-4-fluoro-5-((5-(3-((4-(prop-1-en-2-yl)isothiazol-3-yl)oxy)cyclopentyl)-1H-pyrazol-3-yl)amino)-2,3-dihydrobenzo[d]isothiazole 1,1-dioxide] |
| 171 | 531 | Cc1ccncc1O[C@@H]1CC[C@H](c2cc(Nc3ccc4c(c3F)CNS4(=O)=O)n[nH]2)C1 (relative stereo) [Example 42, cis-4-fluoro-5-((5-(3-((4-methylpyridin-3-yl)oxy)cyclopentyl)-1H-pyrazol-3-yl)amino)-2,3-dihydrobenzo[d]isothiazole 1,1-dioxide] |
| 1400 | 8340 | CC(C)c1cncc(O[C@@H]2CC[C@H](c3cc(Nc4ccc5c(c4F)CNS5(=O)=O)n[nH]3)C2)c1 (relative stereo) [Example 44, cis-4-fluoro-5-((5-(3-((5-isopropylpyridin-3-yl)oxy)cyclopentyl)-1H-pyrazol-3-yl)amino)-2,3-dihydrobenzo[d]isothiazole 1,1-dioxide] |
